From ChEMBL document CHEMBL3886561, “Pyridine-and pyrazine derivatives” (2016)

Columns and labels:
[1] = biological target: T1, Serine/threonine-protein kinase TBK1 (Homo sapiens, UniProt Q9UHD2); assay: TBK1 : The kinase assay is performed as 384-well Flashplate assay (for e.g. Topcount measurement. 0.6 nM TANK binding kinase (TBK1), 800 nM biotinylated MELK-derived peptide (Biotin-Ah-Ah-[…]) SEQ ID NO: 2 and 10 uM ATP (spiked with 0.25 uCi 33P-ATP/well) are incubated in a total volume of 50 ul (10 mM MOPS, 10 mM Mg-acetat, 0.1 mM EGTA, 1 mM DTT, 0.02% Brij35, 0.1% BSA, pH 7.5) with or without test compound for 120 Min at 30° C. The reaction is stopped with 25 ul 200 mM EDTA. After 30 Min at room temperature the liquid is removed and each well washed thrice with 100 ul 0.9% sodium chloride solution.
T1 sequence (Q9UHD2 whole entry): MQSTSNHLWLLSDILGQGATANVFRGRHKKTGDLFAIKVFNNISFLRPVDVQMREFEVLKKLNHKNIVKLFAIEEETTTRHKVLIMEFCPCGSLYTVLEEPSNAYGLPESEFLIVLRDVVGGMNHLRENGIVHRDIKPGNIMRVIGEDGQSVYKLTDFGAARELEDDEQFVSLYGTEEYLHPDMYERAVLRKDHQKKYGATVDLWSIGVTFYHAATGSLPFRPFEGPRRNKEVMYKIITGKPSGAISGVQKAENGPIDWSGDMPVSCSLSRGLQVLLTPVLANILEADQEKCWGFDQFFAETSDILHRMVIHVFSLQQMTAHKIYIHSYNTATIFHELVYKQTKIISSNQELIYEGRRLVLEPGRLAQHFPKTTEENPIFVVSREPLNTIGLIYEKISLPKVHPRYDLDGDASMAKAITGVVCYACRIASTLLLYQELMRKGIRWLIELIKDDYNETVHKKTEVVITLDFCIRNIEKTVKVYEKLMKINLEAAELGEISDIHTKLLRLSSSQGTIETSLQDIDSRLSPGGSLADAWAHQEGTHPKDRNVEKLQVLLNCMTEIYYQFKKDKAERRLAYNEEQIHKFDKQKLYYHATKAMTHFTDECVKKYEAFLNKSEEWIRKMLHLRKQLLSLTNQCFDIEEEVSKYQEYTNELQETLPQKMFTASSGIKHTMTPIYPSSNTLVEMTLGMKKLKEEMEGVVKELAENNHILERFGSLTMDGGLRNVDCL

[2] = biological target: T2, Inhibitor of nuclear factor kappa-B kinase subunit epsilon (Homo sapiens, UniProt Q14164); assay: IKKepsilon Flashplate Assay: The kinase assay is performed either as 384-well Flashplate assay (for e.g. Topcount measurement). 1 nM IKKepsilon, 800 nM biotinylated IkappaBalpha(19-42) peptide (Biotin-C6-C6-[…]) SEQ ID NO: 1 and 10 uM ATP (spiked with 0.3 uCi 33P-ATP/well) are incubated in a total volume of 50 ul (10 mM MOPS, 10 mM Mg-acetat, 0.1 mM EGTA, 1 mM Dithiothreitol,0.02% Brij35, 0.1% BSA, 0.1% BioStab, pH 7.5) with or without test compound for 2 hours at 30° C. The reaction is stopped with 25 ul 200 mM EDTA. After 30 Min at room temperature the liquid is removed and each well washed thrice with 100 ul 0.9% sodium chloride solution. Non-specific reaction is determined in presence of 3 uM MSC2119074 (BX-795). Radioactivity is measured with Topcount (PerkinElmer).
T2 sequence (Q14164 whole entry): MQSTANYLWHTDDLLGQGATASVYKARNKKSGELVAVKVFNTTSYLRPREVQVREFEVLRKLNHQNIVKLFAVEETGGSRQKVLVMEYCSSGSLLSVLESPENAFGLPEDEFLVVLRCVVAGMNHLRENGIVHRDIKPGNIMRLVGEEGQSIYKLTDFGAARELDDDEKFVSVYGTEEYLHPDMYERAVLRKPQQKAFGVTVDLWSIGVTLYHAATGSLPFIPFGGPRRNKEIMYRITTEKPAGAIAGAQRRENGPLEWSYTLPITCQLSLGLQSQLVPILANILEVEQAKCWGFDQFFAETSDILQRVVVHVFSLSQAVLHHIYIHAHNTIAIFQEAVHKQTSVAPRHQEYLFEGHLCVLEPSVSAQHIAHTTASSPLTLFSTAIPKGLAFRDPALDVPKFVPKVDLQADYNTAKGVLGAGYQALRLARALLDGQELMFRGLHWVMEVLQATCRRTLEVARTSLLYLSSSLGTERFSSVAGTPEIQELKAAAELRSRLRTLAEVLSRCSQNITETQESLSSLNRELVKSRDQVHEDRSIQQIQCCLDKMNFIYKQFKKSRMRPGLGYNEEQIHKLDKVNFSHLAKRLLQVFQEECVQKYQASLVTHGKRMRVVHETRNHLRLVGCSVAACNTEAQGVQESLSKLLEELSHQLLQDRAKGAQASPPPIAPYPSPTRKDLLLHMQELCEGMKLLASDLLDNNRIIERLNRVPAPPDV

In the case of `Nc1ncc(-c2cccc(C(=O)O)c2)cc1C(=O)Nc1ccncc1`, the IC50 [1] is reported as 1100 nM and the IC50 [2] is reported as 3200 nM.
